Experiment [1] can be described thus: Simvastatin for 16 weeks in patients with high cholesterol. Format: in vivo, human. Particulars: six time points. As for the experimental part:
Twenty six patients with high cholesterol were administered simnvastatin for 16 weeks. Blood was collected at six times points during the 16 weeks and analyzed for TGF-beta levels.

The next experiment deals with TGF-beta. Nature of the experiment: TGF-beta in vessel wall of apoE knockout mice (quantitative immunofluorescence). Type of experiment: in vivo, mouse. The conditions noted are these: 87 days treatment. As for the experimental part:
No. 08/478,936, filed Jun. 7, 1995, which is incorporated by reference herein. […] Sigma) and fixed in ice-cold acetone for 90 seconds, air-dried and stored at -20° C. until assayed. […] R&D Systems), see Mosedale et al., Histochem. Cytochem., 44, 1043 (1996), the disclosure of which is incorporated by reference herein. Active TGF-beta wag measured by quantitative immunofluorescence microscopy using the recombinant extracellular domain of the type II TGF-beta receptor […]) labeled with fluorescein.

A further experiment has as its system apoE knockout mice. Kind of experiment: Lipid lesion development in aortic sinus of apoE knockout mice (Oil Red O).
The subject of experiment [2] is smooth muscle α-actin (SM-α-actin). Nature of the experiment: SM-alpha-actin in vessel wall (quantitative immunofluorescence). Type of experiment: in vivo, mouse. The conditions noted are these: 87 days treatment. As for the experimental part: (§1) SM-α-actin and osteopontin were measured by quantitative immunofluorescence microscopy using specific primary antibodies A-6125 (Sigma) and MBP111Bio (NIH Developmental Studies Hybridoma Bank), respectively.

A further experiment has as its system osteopontin. Nature of the experiment: Osteopontin in vessel wall (quantitative immunofluorescence). Format: in vivo, mouse. Particulars: 87 days treatment. As for the experimental part:
as §1

Experiment [3] in a line: Serum lipid and lipoprotein profile of apoE knockout mice. Format: in vivo, mouse. As for the experimental part: The effect of each treatment on the lipid profile of each group of mice was determined by measuring the cholesterol and triglyceride. Blood from a terminal bleed was collected in a polypropylene tube, allowed to clot at room temperature for 2 hours and then spun (1,000×g; 5 minutes). The serum supernatant was aliquoted and stored at −20° C. until assayed. Total cholesterol and total triglycerides were determined for each mouse using the cholesterol oxidase and glycerol kinase UV end-point enzymatic methods respectively (Sigma Diagnostics).

Where [4] appears, read: single measurement on pooled blood of the group.

In the case of `CCC(C)(C)C(=O)O[C@H]1C[C@@H](C)C=C2C=C[C@H](C)[C@H](CC[C@@H]3C[C@@H](O)CC(=O)O3)[C@H]21` [Zocor, simvastatin], in experiment [1], the “effect on TGF-beta levels” value was “no effect”. In addition, in the experiment on TGF-beta, the “Active + Latent TGF-beta in Vessel Wall” value worked out at 44 ± 5 and the “Active TGF-beta in Vessel Wall” value was 20 ± 3. In addition, in the experiment on apoE knockout mice (3 month treatment), the “change in lesion development / lesion formation vs untreated mice” value was −7%. Besides, in the experiment on apoE knockout mice (87 days treatment), the “Number of Lesions” value is on record as 8.1 ± 0.4. In addition, the “Lesion Area (μm^2 staining)” value in the experiment with apoE knockout mice (87 days treatment, per mouse, n=10) was 25,777 ± 1368 μm^2. In addition, the “SMα Actin” value in experiment [2] is given as 114 ± 19. The Osteopontin with osteopontin was found to be 73 ± 8. For the same compound, in experiment [3] (serum, 87 days treatment), the Total cholesterol is 224 ± 29 mg/dL and the Total triglyceride is 266 ± 14 mg/dL. In experiment [3] (setting [4]), this compound came in with an HDL-cholesterol of 35 mg/dL, an LDL-cholesterol of 54 mg/dL and a VLDL-cholesterol of 158 mg/dL. Moreover, in experiment [3] (three months), the “change in LDL-cholesterol vs control mice” value is listed as −41%, the “change in VLDL-cholesterol vs control mice” value was −14%, the “change in total plasma cholesterol vs control mice” value is listed as −27% and the “reduction in total plasma triglyceride concentration” value was −12%.

The values above are taken from patent US6410587B1, “Compounds and therapies for the prevention of vascular and non-vascular pathologies” (NeoRx Corporation, priority 1997, dated 2002).
